According to patent US8193171B2, “13,13-dimethyl-des-C,D analogs of 1α,25-dihydroxy-19-nor-vitamin D3 compounds and topical composition dosage forms and methods of treating skin conditions thereof” (Wisconsin Alumni Research Foundation, priority 2008, dated 2012):

Legend:
Rhino mouse comedones = experiment: Comedolytic effect of daily topical application in the Rhino mouse; format: in vivo; conditions: for Comedone Area (% Vehicle): Rhino mouse, topical daily ca. 3 weeks, 70 vol % ethanol / 30 vol % propylene glycol, mean ± SEM, N 6
Text: Rhino mice were used to topically test the compounds and compositions of the invention. The Rhino mouse is a well-established animal model used to study the comedolytic effects of anti-acne agents including retinoids. (See Boulcier M et al., 1990, Experimental Models in Skin Pharmacology, In Pharmacological Reviews 42:127-154). The Rhino mouse model was used to study the therapeutic potential of 13Me2.
Animals and dose administration. Rhino mice were enrolled in the study at 6-8 weeks of age and were dosed daily via the topical route. The mice were weighed three times per week and doses were adjusted weekly based on body weight. The topical formulations were applied to the back of the animal in a maximum volume of 100 μL. The topical formulations were made by mixing the 13Me2 with a topical carrier comprising 70 vol % ethanol and 30 vol % propylene glycol, as indicated. The topical vehicle control was the vehicle carrier solution matched to the formulation containing API and vehicle carrier. Mice were sacrificed 72 hours after the final topical dose. At sacrifice, the dorsal skin was collected for histology studies.
Comedolytic effect. The extent of the comedolytic effect (i.e., efficacy) was assessed by measuring the average area of the comedones, whereby the smaller the area, the larger the effect. The comedone area was determined by histological analysis of tissue sections based upon lab methods. Skin was fixed overnight in 4% paraformaldehyde at 4° C. with gentle agitation, and dehydrated the next day into 100% methanol.
Samples were embedded in paraffin and a total of nine 10μ sections 150μ apart were prepared from each Rhino mouse. Five of the nine sections were digitally imaged (6× magnification) for comedone analysis using Metamorph Imaging Software (trace function). The perimeter of each comedone on the images taken from the 5 sections was then traced using a Wacom Intuos 3 Graphics Tablet interfaced with the software.
The number of pixels comprising the area of each individual comedone was obtained, and the mean number of pixels per comedone was obtained for each Rhino mouse. For comedones that were completely healed (area=0) a pixel value approaching 0 (<10) was scored. The individual comedone area average for each mouse was then used to calculate the treatment group mean. Results in the figures are expressed in terms of mean±standard error of the mean.
Preparation of topical formulations containing 13Me2. A concentrated ethanolic stock of 13Me2 was diluted to a final concentration containing 30 vol % propylene glycol and 70 vol % ethanol as the excipient carrier system. The mixture was thoroughly mixed. The topical dosing formulation delivered a predetermined dosing amount of drug on a per kilogram body weight basis. […]

[1] = system: intestinal calcium transport; experiment: Intestinal calcium transport (everted gut sac method); format: in vivo, rat; conditions: Sprague-Dawley rats, four consecutive intraperitoneal doses
Experimental: (§1) Intestinal Calcium Transport and Bone Calcium Mobilization Activity. Male, weanling Sprague-Dawley rats were placed on Diet 11 (0.47% Ca) diet+AEK oil for one week followed by Diet 11 (0.02% Ca)+AEK oil for 3 weeks. The rats were then switched to a diet containing 0.47% Ca for one week followed by two weeks on a diet containing 0.02% Ca. Dose administration began during the last week on 0.02% calcium diet. Four consecutive intraperitoneal doses were given approximately 24 hours apart. Twenty-four hours after the last dose, blood was collected from the severed neck and the concentration of serum calcium determined as a measure of bone calcium mobilization. The first 10 cm of the intestine was also collected for intestinal calcium transport analysis using the everted gut sac method.

[2] = system: Human promyelocytic leukemia (HL-60) cells; experiment: HL-60 cell differentiation (nitro blue tetrazolium reduction); format: cell-based; conditions: four days of treatment
Experimental: HL-60 Differentiation. Test Material. Study Drugs. The study drugs were dissolved in ethanol and the concentrations determined using UV spectrophotometry. Serial dilutions were prepared so that a range of drug concentrations could be tested without changing the final concentration of ethanol (<0.2%) present in the cell cultures.
Cells. Human promyelocytic leukemia (HL-60) cells were grown in RPMI-1640 medium containing 10% fetal bovine serum. The cells were incubated at 37° C. in the presence of 5% CO2.
Assay Conditions. HL-60 cells were plated at 1.2×10^5 cells/ml. Eighteen hours after plating, cells in duplicate were treated with drug. Four days later, the cells were harvested and a nitro blue tetrazolium reduction assay was performed. (Collins et al., 1979, J. Exp. Med. 149:969-974). The percentage of differentiated cells was determined by counting a total of 200 cells and recording the number that contained intracellular black-blue formazan deposits. Verification of differentiation to monocytic cells was determined by measuring phagocytic activity (data not shown).

[3] = target: T1, Full-length recombinant rat receptor (vitamin D receptor, VDR) (Rattus norvegicus, UniProt P13053); experiment: Competitive vitamin D receptor binding; conditions: relative to 1.25(OH)2D3; radioligand 3H-1.25(OH)2D3 1 nM
T1 construct: Full-length recombinant rat receptor was expressed in E. coli; histidine tag (C); made in house; host or cells: E. coli BL21(DE3) Codon Plus RIL
T1 sequence (P13053 1-423): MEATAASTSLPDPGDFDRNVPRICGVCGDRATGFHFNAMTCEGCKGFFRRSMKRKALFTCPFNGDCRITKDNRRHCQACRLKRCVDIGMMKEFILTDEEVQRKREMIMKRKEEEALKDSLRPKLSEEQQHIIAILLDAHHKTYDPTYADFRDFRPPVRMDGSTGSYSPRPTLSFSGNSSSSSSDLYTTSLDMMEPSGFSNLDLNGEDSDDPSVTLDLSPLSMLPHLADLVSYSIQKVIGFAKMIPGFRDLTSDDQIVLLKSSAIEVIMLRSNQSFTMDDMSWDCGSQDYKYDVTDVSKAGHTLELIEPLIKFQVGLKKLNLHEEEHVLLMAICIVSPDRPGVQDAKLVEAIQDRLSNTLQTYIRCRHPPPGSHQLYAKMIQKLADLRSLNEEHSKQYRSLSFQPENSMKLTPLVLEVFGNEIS
Experimental: Experimental Methods. […] The first system was a nickel affinity resin that utilizes the C-terminal histidine tag on this protein. The protein that was eluted from this resin was further purified using ion exchange chromatography (S-Sepharose Fast Flow). Aliquots of the purified protein were quick frozen in liquid nitrogen and stored at −80° C. until use. For use in binding assays, the protein was diluted in TEDK50 (50 mM Tris, 1.5 mM EDTA, pH 7.4, 5 mM DTT, 150 mM KCl) with 0.1% Chaps detergent. The receptor protein and ligand concentration was optimized such that no more than 20% of the added radiolabeled ligand was bound to the receptor.
Assay Conditions. […] The hydroxylapaptite was collected by centrifugation and then washed three times with Tris-EDTA buffer (50 mM Tris, 1.5 mM EDTA, pH 7.4) containing 0.5% Titron X-100. After the final wash, the pellets were transferred to scintillation vials containing 4 ml of Biosafe II scintillation cocktail, mixed and placed in a scintillation counter. Total binding was determined from the tubes containing only radiolabeled ligand.

[4] = system: 24-hydroxylase (24OHase) gene promoter; experiment: In vitro 24-OHase transcription assay (luciferase reporter in ROS 17/2.8 bone cells); format: cell-based; conditions: ROS 17/2.8 cells, sixteen hours after dosing
Experimental: In vitro Transcription Assay. Transcription activity was measured in ROS 17/2.8 (bone) cells that were stably transfected with a 24-hydroxylase (24OHase) gene promoter upstream of a luciferase reporter gene. (Arbour et al., 1998). Cells were given a range of doses. Sixteen hours after dosing the cells were harvested and luciferase activities were measured using a luminometer. RLU=relative luciferase units.

[5] = system: bone calcium mobilization; experiment: Bone calcium mobilization (serum calcium); format: in vivo, rat; conditions: Sprague-Dawley rats, four consecutive intraperitoneal doses
Experimental: as §1

VDR binding affinity compared to the native hormone [3]	SMILES	Comedone Area (% Vehicle) (Rhino mouse comedones; dose 6.0 nmol/kg)	Activity on intestinal calcium transport [1]	HL-60 differentiation activity relative to 1.25(OH)2D3 [2]	Comedone area relative to the vehicle-treated group (FIG. 6) (Rhino mouse comedones; Rhino mice, topical 217 nmole/kgBW/day, 3 weeks daily)	Comedone area relative to the vehicle-treated group (FIG. 7) (Rhino mouse comedones; Rhino mice, topical 69 and 217 nmole/kgBW/day, 3 weeks daily)	Comedone Area (% Vehicle) (Rhino mouse comedones; dose 217 nmol/kg)	24-OHase transcription activity relative to 1.25(OH)2D3 [4]	Activity on bone calcium mobilization [5]
–	C=C1/C(=C\C=C2/CCC[C@]3(C)[C@@H]([C@H](C)CCCC(C)(C)O)CC[C@@H]23)C[C@@H](O)C[C@@H]1O [1,25(OH)2D3, 1,25-DIHYDROXYVITAMIN D3, reference compound]	187 ± 30	–	–	–	–	–	–	–
one log less affinity	C=C1[C@H](O)CC(=C/C=C/CC(C)(C)C[C@@H](C)CCCC(C)(C)O)C[C@H]1O [13Me2, (1R,3R)-5-[(E)-(S)-11′-hydroxy-5′,5′,7′,11′-tetramethyl-dodec-2′-enylidene]-2-methylene-cyclohexane-1,3-diol]	–	insignificant activity	lower than 1.25(OH)2D3 by approximately one log	significant reduction in comedone area	dose-dependent reduction in comedone area	26 ± 3	lower than 1.25(OH)2D3 by approximately one log	insignificant activity
